Data from ChEMBL document CHEMBL1201862, “PubChem BioAssay data set” (2004).
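These data come from cells grown in 96-well plates and exposed to compound for 48 hours at five concentrations. Here, GI50 denotes the concentration required for 50% inhibition of growth.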 Active and inactive are the calls of the source. Rule as the data show it: active = GI50 up to about 1.1 µM and inactive = higher.

Key:
Assay in all cases: inhibition of tumour cell growth, NCI panel, 48 h
MCF7 = test system: MCF7
SK-MEL-2 = test system: SK-MEL-2
UACC-62 = test system: UACC-62
NCI-H522 = test system: NCI-H522
LOX IMVI = test system: LOX IMVI
PC-3 = test system: PC-3
U-251 = test system: U-251
HL-60 = test system: HL-60
786-0 = test system: 786-0
NCI/ADR-RES = test system: NCI/ADR-RES
OVCAR-4 = test system: OVCAR-4
SW-620 = test system: SW-620
UO-31 = test system: UO-31
RPMI-8226 = test system: RPMI-8226
OVCAR-3 = test system: OVCAR-3
HCT-116 = test system: HCT-116
SK-OV-3 = test system: SK-OV-3
COLO 205 = test system: COLO 205
SN12C = test system: SN12C
MDA-MB-231 = test system: MDA-MB-231

Measured: GI50

C=CC(COC(=O)C(C)(C)OC(C)=O)c1ccc(OC(=O)C(C)C)c(OC)c1 (stereo not given)
inactive: MCF7 2.51 µM | SK-MEL-2 9.62 µM | UACC-62 11.8 µM | NCI-H522 2.23 µM | LOX IMVI 3.17 µM | PC-3 9.68 µM | U-251 3.59 µM | HL-60 4.6 µM | 786-0 7.38 µM | NCI/ADR-RES 11 µM | OVCAR-4 7.89 µM | SW-620 4.84 µM | UO-31 7.69 µM | RPMI-8226 3.78 µM | OVCAR-3 4.76 µM | HCT-116 4.05 µM | SK-OV-3 16.5 µM | COLO 205 2.46 µM | SN12C 3.34 µM | MDA-MB-231 2.64 µM

O=C(N[C@H](CO)[C@H](O)c1ccc([N+](=O)[O-])cc1)C(Cl)Cl [CHLORAMPHENICOL]
inactive: MCF7 > 100 µM | SK-MEL-2 > 100 µM | UACC-62 > 100 µM | NCI-H522 > 100 µM | LOX IMVI > 100 µM | PC-3 > 100 µM | U-251 > 100 µM | HL-60 > 100 µM | 786-0 > 100 µM | NCI/ADR-RES > 100 µM | OVCAR-4 > 95.9 µM | SW-620 > 100 µM | UO-31 > 100 µM | RPMI-8226 > 100 µM | OVCAR-3 > 100 µM | HCT-116 > 100 µM | SK-OV-3 > 100 µM | COLO 205 > 100 µM | SN12C > 100 µM | MDA-MB-231 47.8 µM

CN(C)/N=N/c1[nH]cnc1C(N)=O [DACARBAZINE]
inactive: MCF7 89.7 µM | SK-MEL-2 9.82 µM | UACC-62 35.3 µM | NCI-H522 67.1 µM | LOX IMVI 11.7 µM | PC-3 > 96.4 µM | U-251 92 µM | HL-60 14.9 µM | 786-0 87.9 µM | NCI/ADR-RES 66.4 µM | OVCAR-4 34.8 µM | SW-620 55.1 µM | UO-31 32.1 µM | RPMI-8226 19.1 µM | OVCAR-3 55.3 µM | HCT-116 38.5 µM | SK-OV-3 20.6 µM | COLO 205 78.9 µM | SN12C 78.7 µM | MDA-MB-231 51.3 µM
